According to PubChem BioAssay AID651598 (Sanford-Burnham Center for Chemical Genomics, 2012):
Calls of active or inactive are those of the source.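 How the source made its calls: active means CXCR6 IC50 under 10 µM and IC50 at the unrelated APJ receptor at least five times higher; inactive means the rest.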

Assays:
[1] = biological target: Apelin receptor (Homo sapiens) (UniProt P35414); assay: apelin receptor (APJ) antagonists, SAR follow-up, counter-screen for CXCR6 antagonist project, cell-based, beta-arrestin, DiscoveRx, panel, CHO-K1 (AID 651598); conditions: CHO-K1 PathHunter beta-arrestin luminescence, antagonist mode; APJ; mean of runs
[2] = biological target: C-X-C chemokine receptor type 6 (Homo sapiens) (UniProt O00574); assay: as above; conditions: CHO-K1 PathHunter beta-arrestin luminescence, antagonist mode; CXCR6; mean of runs
Chain of C-X-C chemokine receptor type 6 (Homo sapiens) (O00574 whole entry, looked up): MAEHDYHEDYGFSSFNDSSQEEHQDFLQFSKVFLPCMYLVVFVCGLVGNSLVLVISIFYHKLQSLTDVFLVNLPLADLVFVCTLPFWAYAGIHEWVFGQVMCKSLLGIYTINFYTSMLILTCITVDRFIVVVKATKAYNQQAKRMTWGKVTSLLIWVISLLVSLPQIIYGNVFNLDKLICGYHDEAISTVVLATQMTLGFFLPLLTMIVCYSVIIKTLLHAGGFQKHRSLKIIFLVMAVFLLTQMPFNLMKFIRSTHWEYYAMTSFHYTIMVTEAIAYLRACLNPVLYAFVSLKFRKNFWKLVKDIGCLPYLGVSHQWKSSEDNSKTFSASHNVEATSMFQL

Chain of Apelin receptor (Homo sapiens) (P35414 whole entry, looked up): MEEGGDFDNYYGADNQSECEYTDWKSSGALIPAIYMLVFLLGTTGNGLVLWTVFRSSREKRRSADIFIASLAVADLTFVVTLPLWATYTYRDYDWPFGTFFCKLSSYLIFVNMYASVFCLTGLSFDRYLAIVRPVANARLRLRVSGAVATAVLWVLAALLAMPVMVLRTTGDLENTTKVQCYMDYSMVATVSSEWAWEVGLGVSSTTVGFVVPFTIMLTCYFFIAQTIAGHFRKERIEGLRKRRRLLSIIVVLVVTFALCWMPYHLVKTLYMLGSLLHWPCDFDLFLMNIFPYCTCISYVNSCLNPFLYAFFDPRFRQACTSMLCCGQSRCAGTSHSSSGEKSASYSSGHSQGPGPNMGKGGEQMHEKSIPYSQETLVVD

| IC50 [1] | IC50 [2] | SMILES |
| --- | --- | --- |
| > 80 µM (inactive) | > 80 µM (inactive) | COc1cc(C(=O)NC2CCN(CC(=O)Nc3ccccc3)CC2)cc(OC)c1OC |
| > 80 µM (inactive) |  | COc1cc(C(=O)NC2CC3CCCC(C2)N3CC(=O)Nc2ccccc2)cc(OC)c1OC (centres undefined) |
| > 80 µM (inactive) |  | COc1cc(C(=O)NC2CC3CCC(C2)N3CC(=O)Nc2ccccc2)cc(OC)c1OC (centres undefined) |
